This is an account of results in patent US8030354B2, “Substituted biphenyl GPR40 modulators” (Amgen Inc., priority 2007, dated 2011).

SMILES strings stand for the structures.

GPR40, sequence (O14842 whole entry): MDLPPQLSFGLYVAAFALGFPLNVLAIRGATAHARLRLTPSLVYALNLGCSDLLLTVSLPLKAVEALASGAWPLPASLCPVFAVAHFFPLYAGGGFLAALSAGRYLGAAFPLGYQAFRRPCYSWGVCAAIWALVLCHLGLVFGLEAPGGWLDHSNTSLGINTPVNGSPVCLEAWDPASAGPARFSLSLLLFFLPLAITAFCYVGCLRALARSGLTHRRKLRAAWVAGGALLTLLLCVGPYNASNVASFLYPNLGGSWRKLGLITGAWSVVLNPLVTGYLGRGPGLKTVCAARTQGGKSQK

This assay has as its target GPR40 (Homo sapiens, UniProt O14842). In words: Cell-based aequorin assay (CHO cells stably expressing GPR40 and aequorin). Also on record: expressed in transfected cells; host or cells: CHO cells stably transfected with GPR40 and aequorin. Conditions: activation of human GPR40, CHO cells, 0.01% HSA. In outline:
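CHO cells stably co-expressing GPR40 and aequorin, loaded with coelenterazine (1 ug/mL, 2 h, room temperature) in H/HBSS with 20 mM Hepes and 0.01% fatty acid-free HSA. Serially diluted compounds added; luminescence recorded over 20 s. EC50 from dose-response of maximum relative light units.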
The EC50 is the concentration giving half of the maximal effect. The low end stands for greater potency, the high end for weaker potency. In turn, `CC1(C)CCC=C1c1cc(COc2cccc([C@@H](CC(=O)O)C3CC3)c2)ccc1-c1cc(O)ccc1F` (single isomer, unassigned) [Example 66.14, (3S)-3-Cyclopropyl-3-(3-(((2-(5,5-dimethyl-1-cyclopenten-1-yl)-2′-fluoro-5′-hydroxy-1,1′-biphenyl-4-yl)methyl)oxy)phenyl)propanoic acid or (3R)-3-cyclopropyl-3-(3-(((2-(5,5-dimethyl-1-cyclopenten-1-yl)-2′-fluoro-5′-hydroxy-1,1′-biphenyl-4-yl)methyl)oxy)phenyl)propanoic acid] yielded an EC50 of 0.1 to 1 µM.
Consider `CCCCOc1cc(COc2cccc([C@H](C)CC(=O)O)c2)ccc1-c1ccccc1F` (single isomer, unassigned) [Example 24, (3R)-3-(3-(((2-(Butyloxy)-2′-fluoro-1,1′-biphenyl-4-yl)methyl)oxy)phenyl)butanoic acid or (3S)-3-(3-(((2-(butyloxy)-2′-fluoro-1,1′-biphenyl-4-yl)methyl)oxy)phenyl)butanoic acid], for which the EC50 was 1 to 10 µM.
Under `CCCC(CC(=O)O)c1cccc(OCc2ccc(-c3cc(OC)ccc3F)c(CN3CCCC3)c2)c1` (single isomer, unassigned) [Example 67.28, (3R)-3-(3-(((2′-Fluoro-5′-(methyloxy)-2-(1-pyrrolidinylmethyl)-1,1′-biphenyl-4-yl)methyl)oxy)phenyl)hexanoic acid or (3S)-3-(3-(((2′-fluoro-5′-(methyloxy)-2-(1-pyrrolidinylmethyl)-1,1′-biphenyl-4-yl)methyl)oxy)phenyl)hexanoic acid] stands 1 to 10 µM; under `COCC1(c2cc(COc3cccc(C(CC(=O)O)C4CC4)c3F)ccc2-c2cc(OC)ncc2F)CCCC1` (single isomer, unassigned) [Example 83.30, (3S)-3-(3-(4-(5-Fluoro-2-methoxypyridin-4-yl)-3-(1-(methoxymethyl)cyclopentyl)benzyloxy)-2-fluorophenyl)-3-cyclopropylpropanoic acid or (3R)-3-(3-(4-(5-fluoro-2-methoxypyridin-4-yl)-3-(1-(methoxymethyl)cyclopentyl)benzyloxy)-2-fluorophenyl)-3-cyclopropylpropanoic acid], 1 to 10 µM.
The molecule `COc1ccc(F)c(-c2ccc(COc3cccc(CC(C)C(=O)O)c3)cc2C2=CCCC2(C)C)c1` (single isomer, unassigned) [Example 62.1, (2R)-3-(3-(((2-(5,5-Dimethyl-1-cyclopenten-1-yl)-2′-fluoro-5′-(methyloxy)-1,1′-biphenyl-4-yl)methyl)oxy)phenyl)-2-methylpropanoic acid or (2S)-3-(3-(((2-(5,5-dimethyl-1-cyclopenten-1-yl)-2′-fluoro-5′-(methyloxy)-1,1′-biphenyl-4-yl)methyl)oxy)phenyl)-2-methylpropanoic acid] showed an EC50 of 0.1 to 1 µM.
For `COc1cccc(-c2ccc(COc3cccc(C(CC(=O)O)CC4CC4)c3)cc2C2CCCC2(C)C)c1` (single isomer, unassigned) [Example 69.9], the EC50 was in the range of 0.1 to 1 µM.
On to `COc1ccc(F)c(-c2ccc(C(C)Oc3cccc(C(C)CC(=O)O)c3)cc2C(C)(C)C)c1` (single isomer, unassigned) [Example 64.25], for which the EC50 lay in the range of 1 to 10 µM.
On to `CCCCOc1cc(COc2cccc(C(CC(=O)O)C3CC3)c2)ccc1-c1cccc(OC)c1` (single isomer, unassigned) [Example 66.1, (3S)-3-(3-(((2-(Butyloxy)-3′-(methyloxy)-1,1′-biphenyl-4-yl)methyl)oxy)phenyl)-3-cyclopropylpropanoic acid or (3R)-3-(3-(((2-(butyloxy)-3′-(methyloxy)-1,1′-biphenyl-4-yl)methyl)oxy)phenyl)-3-cyclopropylpropanoic acid], for which the EC50 fell in the range of 0.1 to 1 µM.
Under `COc1ccc(F)c(-c2ccc(COc3cccc([C@@H](CC(=O)O)C4CC4)c3)cc2C(OC)C(C)(C)CO)c1` (single isomer, unassigned) [Example 66.41, (S)-3-Cyclopropyl-3-{3-[2′-fluoro-2-(3-hydroxy-1-methoxy-2,2-dimethyl-propyl)-5′-methoxy-biphenyl-4-ylmethoxy]-phenyl}-propionic acid or (R)-3-cyclopropyl-3-{3-[2′-fluoro-2-(3-hydroxy-1-methoxy-2,2-dimethyl-propyl)-5′-methoxy-biphenyl-4-ylmethoxy]-phenyl}-propionic acid] stands 0.1 to 1 µM; under `CCC(CC(=O)O)c1cccc(OCc2ccc(-c3cc(OC)ccc3F)c(C3CCCC3(C)C)c2)c1` (single isomer, unassigned) [Example 78.3], 0.1 to 1 µM.
`COc1ccc(F)c(-c2ccc(COc3cccc(C(C)CC(=O)O)c3)cc2/C=C/C2CCCCC2)c1` (single isomer, unassigned) [Example 64.9, (3R)-3-(3-(((2-((E)-2-Cyclohexylethenyl)-2′-fluoro-5′-(methyloxy)-1,1′-biphenyl-4-yl)methyl)oxy)phenyl)butanoic acid or (3S)-3-(3-(((2-((E)-2-cyclohexylethenyl)-2′-fluoro-5′-(methyloxy)-1,1′-biphenyl-4-yl)methyl)oxy)phenyl)butanoic acid] registered an EC50 of 0.1 to 1 µM.
In the case of `COc1ccc(F)c(-c2ccc(COc3cccc([C@H](CC(=O)O)C4CC4)c3)cc2C(C)(C)C)c1` (single isomer, unassigned) [Example 10, (3R)-3-Cyclopropyl-3-(3-(((2-(1,1-dimethylethyl)-2′-fluoro-5′-(methyloxy)-1,1′-biphenyl-4-yl)methyl)oxy)phenyl)propanoic acid or (3S)-3-cyclopropyl-3-(3-(((2-(1,1-dimethylethyl)-2′-fluoro-5′-(methyloxy)-1,1′-biphenyl-4-yl)methyl)oxy)phenyl)propanoic acid] it was 1 to 10 µM; in that of `CCC(CC(=O)O)c1cccc(OCc2ccc(-c3cc(OC)ccc3F)c(C3CCCC3(C)C)c2)c1` (single isomer, unassigned) [Example 98.2], 1 to 10 µM; in that of `CCC[C@H](CC(=O)O)c1cccc(OCc2ccc(-c3cc(OC)ccc3F)c(COCC=C(C)C)c2)c1` (single isomer, unassigned) [Example 67.27, (3R)-3-(3-(((2′-Fluoro-2-(((3-methyl-2-butenyl)oxy)methyl)-5′-(methyloxy)-1,1′-biphenyl-4-yl)methyl)oxy)phenyl)hexanoic acid or (3S)-3-(3-(((2′-fluoro-2-(((3-methyl-2-butenyl)oxy)methyl)-5′-(methyloxy)-1,1′-biphenyl-4-yl)methyl)oxy)phenyl)hexanoic acid], 1 to 10 µM.
Molecule `CC1(C)CCC=C1c1cc(COc2cccc([C@@H](CC(=O)O)C3CC3)c2)ccc1-c1cc(C(F)(F)F)ccc1F` (single isomer, unassigned) [Example 66.53, (3S)-3-Cyclopropyl-3-(3-(((2-(5,5-dimethyl-1-cyclopenten-1-yl)-2′-fluoro-5′-(trifluoromethyl)-1,1′-biphenyl-4-yl)methyl)oxy)phenyl)propanoic acid or (3R)-3-cyclopropyl-3-(3-(((2-(5,5-dimethyl-1-cyclopenten-1-yl)-2′-fluoro-5′-(trifluoromethyl)-1,1′-biphenyl-4-yl)methyl)oxy)phenyl)propanoic acid] displayed an EC50 of 1 to 10 µM.
Under `CC1(C)CCC[C@@H]1c1cc(COc2cccc([C@@H](CC(=O)O)C3CC3)c2)ccc1-c1cc(OC(F)(F)F)ccc1F` (single isomer, unassigned) [Example 66.29] stands 0.1 to 1 µM; under `CCC[C@H](CC(=O)O)c1cccc(OCc2ccc(-c3cc(OC)ccc3F)c(COCC)c2)c1` (single isomer, unassigned) [Example 67.23, (3R)-3-(3-(((2-((Ethyloxy)methyl)-2′-fluoro-5′-(methyloxy)-1,1′-biphenyl-4-yl)methyl)oxy)phenyl)hexanoic acid or (3S)-3-(3-(((2-((ethyloxy)methyl)-2′-fluoro-5′-(methyloxy)-1,1′-biphenyl-4-yl)methyl)oxy)phenyl)hexanoic acid], 1 to 10 µM.
`COc1cccc(-c2ccc(COc3cccc(C(CC(=O)O)C4CCC4)c3)cc2C2CCCC2(C)C)c1` (single isomer, unassigned) [Example 79.5] returned an EC50 of 0.1 to 1 µM.
Take `COc1ccc(F)c(-c2ccc(COc3cccc(C(CC(=O)O)C4CC4)c3F)cc2C2CCCC2(C)C)c1` (single isomer, unassigned) [Example 83.17]: the EC50 lay in the range of 0.1 to 1 µM.
Take `CC(C)(O)c1cccc(-c2ccc(COc3cccc([C@@H](CC(=O)O)C4CC4)c3)cc2[C@H]2CCCC2(C)C)c1` (single isomer, unassigned) [Example 66.76, (S)-3-(3-((S)-3-((S)-2,2-dimethylcyclopentyl)-4-(3-(2-hydroxypropan-2-yl)phenyl)benzyloxy)phenyl)-3-cyclopropylpropanoic acid or stereoisomer thereof]: the EC50 is 1 to 10 µM.
In the case of `CCC(CC(=O)O)c1cccc(OCc2ccc(-c3cc(OC)ccc3F)c(C3CCCC3(C)C)c2)c1F` (single isomer, unassigned) [Example 100.1] it was 1 to 10 µM.
For `COc1ccc(F)c(-c2ccc(COc3cccc([C@@H](CC(=O)O)C4CC4)c3F)cc2[C@H](OC)C2(C)CC2)c1` (single isomer, unassigned) [Example 83.31], the EC50 lay within 1 to 10 µM.
`COc1ccc(F)c(-c2ccc(COc3cccc(CC(C)C(=O)O)c3)cc2C2CCCC2(C)C)c1` (single isomer, unassigned) [Example 63.2, (2S)-3-(3-(((2-(2,2-Dimethylcyclopentyl)-2′-fluoro-5′-(methyloxy)-1,1′-biphenyl-4-yl)methyl)oxy)phenyl)-2-methylpropanoic acid or (2R)-3-(3-(((2-(2,2-dimethylcyclopentyl)-2′-fluoro-5′-(methyloxy)-1,1′-biphenyl-4-yl)methyl)oxy)phenyl)-2-methylpropanoic acid]: the EC50 was in the range of 0.1 to 1 µM.
